Laboratory results: US11447487B2, “Spiroheptanyl hydantoins as rock inhibitors” (BRISTOL-MYERS SQUIBB COMPANY, priority 2017, dated 2022)

The molecules below were run against ROCK2 (Homo sapiens (Human), UniProt O75116) (assay: ROCK assay (Caliper LABCHIP peptide phosphorylation)). Settings: 5 μM ATP, 1.5 μM peptide substrate.
Type: biochemical
Protocol: The effectiveness of compounds of the present invention as ROCK inhibitors can be determined in a 30 μL assay containing 20 mM HEPES, pH 7.5, 20 mM MgCl2, 0.015% Brij-35, 4 mM DTT, 5 μM ATP and 1.5 μM peptide substrate (FITC-AHA-AKRRRLSSLRA-OH) (SEQ ID No. 1). Compounds were dissolved in DMSO so that the final concentration of DMSO was <2%, and the reaction was initiated with Rho kinase variants. After incubation, the reaction was terminated by the addition of EDTA and the phosphorylated and non-phosphorylated peptides separated using a LABCHIP® 3000 Reader (Caliper Life Sciences). […] Compounds were tested in dose-response format, and the inhibition of kinase activity was calculated at each concentration of compound. The inhibition data were fit using a curve-fitting program to determine the IC50; i.e., the concentration of compound required to inhibit 50% of kinase activity. Representative Examples were tested in the ROCK assay described above and found having ROCK inhibitory activity. A range of ROCK inhibitory activity (IC50 values) of ≤50 μM (50000 nM) was observed. Table A below lists the ROCK IC50 values measured for the following examples.

ROCK2, sequence (O75116 whole entry, species assumed): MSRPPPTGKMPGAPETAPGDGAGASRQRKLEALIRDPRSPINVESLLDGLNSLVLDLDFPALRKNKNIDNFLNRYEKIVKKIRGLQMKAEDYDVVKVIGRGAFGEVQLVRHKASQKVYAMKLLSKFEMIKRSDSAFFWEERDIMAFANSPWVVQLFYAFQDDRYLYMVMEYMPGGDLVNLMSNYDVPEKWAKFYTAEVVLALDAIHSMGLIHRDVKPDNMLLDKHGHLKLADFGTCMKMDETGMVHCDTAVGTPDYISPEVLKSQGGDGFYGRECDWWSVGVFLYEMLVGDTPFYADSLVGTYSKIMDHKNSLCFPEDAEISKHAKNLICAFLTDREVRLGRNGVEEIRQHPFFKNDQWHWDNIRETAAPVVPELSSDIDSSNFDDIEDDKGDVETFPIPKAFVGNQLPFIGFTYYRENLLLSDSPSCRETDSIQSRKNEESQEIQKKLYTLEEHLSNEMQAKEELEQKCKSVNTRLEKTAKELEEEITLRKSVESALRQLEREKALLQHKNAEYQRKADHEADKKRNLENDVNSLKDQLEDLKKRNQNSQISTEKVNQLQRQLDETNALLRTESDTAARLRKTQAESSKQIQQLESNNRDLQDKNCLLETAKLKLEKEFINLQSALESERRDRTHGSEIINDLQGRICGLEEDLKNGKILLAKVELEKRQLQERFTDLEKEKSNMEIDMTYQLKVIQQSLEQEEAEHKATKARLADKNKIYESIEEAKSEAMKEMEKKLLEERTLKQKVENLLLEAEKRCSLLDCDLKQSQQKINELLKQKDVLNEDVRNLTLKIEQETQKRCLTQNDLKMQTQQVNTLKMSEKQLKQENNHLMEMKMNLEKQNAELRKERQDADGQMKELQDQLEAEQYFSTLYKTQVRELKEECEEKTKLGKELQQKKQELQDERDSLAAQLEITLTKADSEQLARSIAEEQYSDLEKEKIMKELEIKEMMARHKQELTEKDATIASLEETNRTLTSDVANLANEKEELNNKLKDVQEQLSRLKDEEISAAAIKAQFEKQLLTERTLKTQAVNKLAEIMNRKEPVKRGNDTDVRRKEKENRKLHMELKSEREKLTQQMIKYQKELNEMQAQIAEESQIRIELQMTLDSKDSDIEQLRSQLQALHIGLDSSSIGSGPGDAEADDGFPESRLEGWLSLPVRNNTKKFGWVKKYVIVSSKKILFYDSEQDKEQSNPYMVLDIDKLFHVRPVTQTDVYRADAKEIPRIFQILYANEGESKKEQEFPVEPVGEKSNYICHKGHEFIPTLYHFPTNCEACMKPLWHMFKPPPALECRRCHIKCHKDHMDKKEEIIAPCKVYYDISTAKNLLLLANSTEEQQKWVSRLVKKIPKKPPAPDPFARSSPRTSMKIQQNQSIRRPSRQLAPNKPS

| Molecule | IC50 |
| --- | --- |
| 2-((((R)-6-(4-((1-adamantyl)methyl)-2,5-dioxoimidazolidin-1-yl)spiro[3.3]heptan-2-yl)oxy)nicotinamide [Example 68] | 17 nM |
| NC(=O)c1cccnc1O[C@H]1C[C@]2(C1)C[C@H](N1C(=O)NC(CC3CCCCC3)C1=O)C2 (single isomer, unassigned) [Example 2, 2-{[(αR)-6-[4-(cyclohexyl-methyl)-2,5-dioxoimidazol-idin-1-yl]spiro-[3.3]heptan-2-yl]-oxy}pyridine-3-carboxamide] | 8 nM |
| NC(=O)c1cccnc1O[C@H]1C[C@]2(C1)C[C@H](N1C(=O)NC(CCc3ccccc3)C1=O)C2 (single isomer, unassigned) [Example 5, 2-{[(αR)-6-[2,5-dioxo-4-(2-phenylethyl)-imidazolidin-1-yl]spiro[3.3]-heptan-2-yl]oxy}-pyridine-3-carboxamide] | 25 nM |
| NC(=O)c1cccnc1O[C@H]1C[C@]2(C1)C[C@H](N1C(=O)NC(CC3CCCCC3)C1=O)C2 (single isomer, unassigned) [Example 6, 2-{[(αR)-6-(4-cyclohexylmethyl-2,5-dioxoimidazol-idin-1-yl)spiro-[3.3]heptan-2-yl]-oxy}pyridine-3-carboxamide] | 91 nM |
| NC(=O)c1cccnc1O[C@H]1C[C@]2(C1)C[C@H](N1C(=O)NC(CCc3ccccc3)C1=O)C2 (single isomer, unassigned) [Example 12, 2-{[(αR)-6-(4-(2-phenylethyl)-2,5-dioxoimidazol-idin-1-yl)spiro-[3.3]heptan-2-yl]oxy}pyridine-3-carboxamide] | 270 nM |
| CC(C)(C)OC(=O)NCCC1NC(=O)N([C@H]2C[C@@]3(C[C@H](Oc4ncccc4C(N)=O)C3)C2)C1=O (single isomer, unassigned) [Example 20, tert-butyl N-(2-{2,5-dioxo-1-[(αR)-6-[(3-carbamoylpyridin-2-yl)oxy]spiro-[3.3]heptan-2-yl]-imidazolidin-4-yl}ethyl)carbamate] | 1710 nM |
| CC(C)(C)OC(=O)NCCC1NC(=O)N([C@H]2C[C@@]3(C[C@H](Oc4ncccc4C(N)=O)C3)C2)C1=O (single isomer, unassigned) [Example 21, tert-butyl N-(2-{2,5-dioxo-1-[(αR)-6-[(3-carbamoylpyridin-2-yl)oxy]spiro-[3.3]heptan-2-yl]-imidazolidin-4-yl}ethyl)carbamate] | 2380 nM |
| CCC(CC)CC1NC(=O)N([C@H]2C[C@@]3(C[C@H](Oc4ncccc4C(N)=O)C3)C2)C1=O (single isomer, unassigned) [Example 38, 2-{[(αR)-6-(4-(2-ethylbutyl)-2,5-dioxoimidazolidin-1-yl]spiro[3.3]-heptan-2-yl]oxy}-pyridine-3-carbox-amide] | 5 nM |
| NC(=O)c1cccnc1O[C@H]1C[C@]2(C1)C[C@H](N1C(=O)NC(CC3CCCC3)C1=O)C2 (single isomer, unassigned) [Example 40, 2-{[(αR)-6-[4-(cyclopentyl-methyl)-2,5-dioxo-imidazolidin-1-yl]-spiro[3.3]heptan-2-yl]oxy}pyridine-3-carboxamide] | 14 nM |
| NC(=O)c1cccnc1O[C@H]1C[C@]2(C1)C[C@H](N1C(=O)NC(CCCC(F)(F)F)C1=O)C2 (single isomer, unassigned) [Example 42, 2-{[(αR)-6-[2,5-dioxo-4-(4,4,4-trifluorobutyl)-imidazolidin-1-yl]-spiro[3.3]heptan-2-yl]oxy}pyridine-3-carboxamide] | 22 nM |
| NC(=O)c1cccnc1O[C@H]1C[C@]2(C1)C[C@H](N1C(=O)NC(CCC3CCCCCC3)C1=O)C2 (single isomer, unassigned) [Example 43, 2-{[(αR)-6-[4-(2-cycloheptylethyl)-2,5-dioxoimidazol-idin-1-yl]spiro-[3.3]heptan-2-yl]-oxy}pyridine-3-carboxamide] | 23 nM |
| NC(=O)c1cccnc1O[C@H]1C[C@]2(C1)C[C@H](N1C(=O)NC(CC(C(F)(F)F)C(F)(F)F)C1=O)C2 (single isomer, unassigned) [Example 47] | 50 nM |
| CCC(CC)CC1NC(=O)N([C@H]2C[C@@]3(C[C@H](Oc4ncccc4C(N)=O)C3)C2)C1=O (single isomer, unassigned) [Example 48, 2-{[(αR)-6-[4-(2-ethylbutyl)-2,5-dioxoimidazolidin-1-yl]spiro[3.3]-heptan-2-yl]oxy}-pyridine-3-carbox-amide] | 56 nM |
| NC(=O)c1cccnc1O[C@H]1C[C@]2(C1)C[C@H](N1C(=O)NC(CCOCC(F)(F)F)C1=O)C2 (single isomer, unassigned) [Example 50, 2-{[(αR)-6-{2,5-dioxo-4-[2-(2,2,2-trifluoroethoxy)-ethyl]imidazolidin-3-yl}spiro[3.3]-heptan-2-yl]oxy}-pyridine-3-carbox-amide] | 62 nM |
| NC(=O)c1cccnc1O[C@H]1C[C@]2(C1)C[C@H](N1C(=O)NC(CC3CCCC3)C1=O)C2 (single isomer, unassigned) [Example 52] | 160 nM |
| NC(=O)c1cccnc1O[C@H]1C[C@]2(C1)C[C@H](N1C(=O)NC(CCC3CCCCCC3)C1=O)C2 (single isomer, unassigned) [Example 53, 2-{[(αR)-6-[4-(2-cycloheptylethyl)-2,5-dioxoimidazol-idin-1-yl]spiro-[3.3]-heptan-2-yl]-oxy}pyridine-3-carboxamide] | 171 nM |
| NC(=O)c1cccnc1O[C@H]1C[C@]2(C1)C[C@H](N1C(=O)NC(CC3CCCO3)C1=O)C2 (single isomer, unassigned) [Example 55] | 212 nM |
| NC(=O)c1cccnc1O[C@H]1C[C@]2(C1)C[C@H](N1C(=O)NC(CC(C(F)(F)F)C(F)(F)F)C1=O)C2 (single isomer, unassigned) [Example 56, 2-{[(αR)-6-{2,5-dioxo-4-[3,3,3-trifluoro-2-(trifluoromethyl)-propyl]imidazol-idin-1-yl}spiro-[3.3]heptan-2-yl]-oxy}pyridine-3-carboxamide] | 256 nM |
| NC(=O)c1cccnc1O[C@H]1C[C@]2(C1)C[C@H](N1C(=O)NC(CCOC(F)(F)F)C1=O)C2 (single isomer, unassigned) [Example 57, 2-{[(αR)-6-{2,5-dioxo-4-[2-(tri-fluoromethoxy)-ethyl]imidazolidin-1-yl}spiro[3.3]-heptan-2-yl]oxy}-pyridine-3-carbox-amide] | 259 nM |
| NC(=O)c1cccnc1O[C@H]1C[C@]2(C1)C[C@H](N1C(=O)NC(CCOC(F)(F)F)C1=O)C2 (single isomer, unassigned) [Example 59, 2-{[(αR)-6-{2,5-dioxo-4-[2-(trifluoromethoxy)-ethyl]imidazolidin-1-yl}spiro[3.3]-heptan-2-yl]oxy}-pyridine-3-carbox-amide] | 303 nM |
| NC(=O)c1cccnc1O[C@H]1C[C@]2(C1)C[C@H](N1C(=O)NC(CCCC(F)(F)F)C1=O)C2 (single isomer, unassigned) [Example 60, 2-{[(αR)-6-[2,5-dioxo-4-(4,4,4-trifluorobutyl)-imidazolidin-1-yl]-spiro[3.3]heptan-2-yl]oxy}pyridine-3-carboxamide] | 311 nM |
| NC(=O)c1cccnc1O[C@H]1C[C@]2(C1)C[C@H](N1C(=O)NC(CCOCC(F)(F)F)C1=O)C2 (single isomer, unassigned) [Example 61] | 378 nM |
| NC(=O)c1cccnc1O[C@H]1C[C@]2(C1)C[C@H](N1C(=O)NC(CC3CCCO3)C1=O)C2 (single isomer, unassigned) [Example 64, 2-{[(αR)-6-{2,5-dioxo-4-[(oxolan-2-yl)methyl]-imidazolidin-1-yl}-spiro[3.3]heptan-2-yl]oxy}pyridine-3-carboxamide] | 802 nM |
| [H][C@]1(Oc2ncccc2C(N)=O)C[C@]2(C[C@@H](N3C(=O)N[C@@H](CC(C)C)C3=O)C2)C1 (stereo partly drawn) [Example 1] | 8 nM |
| NC(=O)c1cccnc1OC1CC2(C1)CC(N1C(=O)CN(c3ccccc3)C1=O)C2 (stereo not drawn) [Example 3, 2-{[6-(2,5-dioxo-3-phenylimidazol-idin-1-yl)spiro-[3.3]heptan-2-yl]-oxy}pyridine-3-carboxamide] | 9 nM |
| CC(C)(C)C1NC(=O)N([C@H]2C[C@@]3(C[C@H](Oc4ncccc4C(N)=O)C3)C2)C1=O (stereo partly drawn) [Example 7, 2-{[(αR)-6-(4-tert-butyl-2,5-dioxo-imidazolidin-1-yl)spiro[3.3]-heptan-2-yl]oxy}-pyridine-3-carbox-amide] | 129 nM |
| NC(=O)c1cccnc1O[C@H]1C[C@]2(C1)C[C@H](N1C(=O)NC3(CCCC3)C1=O)C2 (stereo partly drawn) [Example 8, 2-{[(αR)-6-{2,4-dioxo-1,3-diaza-spiro[4.4]nonan-3-yl}spiro[3.3]-heptan-2-yl]oxy}-pyridme-3-carbox-amide] | 190 nM |
| CC(C)(C)OCC1NC(=O)N([C@H]2C[C@@]3(C[C@H](Oc4ncccc4C(N)=O)C3)C2)C1=O (stereo partly drawn) [Example 9, 2-{[(αR)-6-(4-tert-butoxymethyl-2,5-dioxoimidazolidin-1-yl)spiro[3.3]-heptan-2-yl]oxy}-pyridine-3-carbox-amide] | 219 nM |
| NC(=O)c1cccnc1OC1CC2(C1)CC(N1C(=O)CN(Cc3ccccc3)C1=O)C2 (stereo not drawn) [Example 10, 2-{[6-(3-benzyl-2,5-dioxoimidazol-idin-1-yl)spiro-[3.3]heptan-2-yl]-oxy}pyridine-3-carboxamide] | 224 nM |
| NC(=O)c1cccnc1O[C@H]1C[C@]2(C1)C[C@H](N1C(=O)CN(CCc3ccccc3)C1=O)C2 (stereo partly drawn) [Example 11] | 225 nM |
